Earlier results as cited in patent US5238927A (priority 1992, dated 1993).

Settings: in vivo

For `NC(=O)c1cc[n+](COC[n+]2ccccc2C=NO)cc1` [HI-6, 1-(2-hydroxyiminomethylpyridinium)-2-(4-carboxyamidopyridinium)-dimethyl ether dichloride], the “effectiveness as antidote in the treatment of organophosphorus toxin nerve poisoning” value is listed as “most effective known antidote”.
